Results taken from article PMC6662683, “Identification of the Catechin Uptake Transporter Responsible for Intestinal Absorption of Epigallocatechin Gallate in Mice” (Scientific Reports, 2019).

T1: diastrophic dysplasia sulfate transporter (DTDST) (Mus musculus, UniProt Q62273)
T1 construct: gene Slc26a2; full open reading frame from mouse ileal epithelial cDNA, C-terminal FLAG tag, stably expressed in CHO-K1 cells (pcDNA3.1(+))
T1 sequence (Q62273 1-739): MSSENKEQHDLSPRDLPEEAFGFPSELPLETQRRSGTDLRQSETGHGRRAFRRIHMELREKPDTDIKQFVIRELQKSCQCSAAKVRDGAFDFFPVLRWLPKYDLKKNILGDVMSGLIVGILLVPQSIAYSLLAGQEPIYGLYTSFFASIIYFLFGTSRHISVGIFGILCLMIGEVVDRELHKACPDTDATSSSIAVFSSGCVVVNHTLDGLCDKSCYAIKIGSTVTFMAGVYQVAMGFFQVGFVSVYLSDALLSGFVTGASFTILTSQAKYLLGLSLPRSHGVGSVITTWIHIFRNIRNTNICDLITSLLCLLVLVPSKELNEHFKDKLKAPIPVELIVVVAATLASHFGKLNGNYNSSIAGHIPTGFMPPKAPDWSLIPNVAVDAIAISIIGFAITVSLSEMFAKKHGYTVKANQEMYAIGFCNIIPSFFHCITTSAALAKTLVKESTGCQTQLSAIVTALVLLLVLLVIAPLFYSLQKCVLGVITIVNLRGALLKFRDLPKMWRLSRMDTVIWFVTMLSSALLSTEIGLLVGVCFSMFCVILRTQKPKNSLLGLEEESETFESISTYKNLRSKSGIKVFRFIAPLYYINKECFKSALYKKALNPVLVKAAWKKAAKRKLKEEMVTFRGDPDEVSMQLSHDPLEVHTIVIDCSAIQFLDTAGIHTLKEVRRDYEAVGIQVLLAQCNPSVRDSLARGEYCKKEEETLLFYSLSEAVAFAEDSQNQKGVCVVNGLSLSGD


Experiments:
[1] = target: T1, diastrophic dysplasia sulfate transporter (DTDST); assay: inhibition of EGCg uptake into stably expressing CHO-K1 cells, LC-MS/MS; format: cell-based; settings: 100 μM DIDS 1 h before EGCg; 500 μM EGCg, 30 min (Figure 4 legend; methods give 100 μM EGCg); pH 6.0, 37 °C
[2] = substrate: O=C(O[C@@H]1Cc2c(O)cc(O)cc2O[C@@H]1c1cc(O)c(O)c(O)c1)c1cc(O)c(O)c(O)c1; assay: EGCg uptake into stably expressing CHO-K1 cells, mock subtracted, LC-MS/MS; format: cell-based, Mus musculus; settings: Hanks' balanced salt solution pH 6.0, 37 °C, 30 min, 1-1000 μM EGCg

Molecule | inhibition of EGCg uptake into stably expressing CHO-K1 cells, LC-MS/MS [1] | Km [2] [µM]
O=S(=O)(O)c1cc(N=C=S)ccc1/C=C/c1ccc(N=C=S)cc1S(=O)(=O)O [4,4′-diisothiocyano-2,2′-stilbenedisulfonic acid] | compared with mock cells was nullified in the presence of the DTDST inhibitor DIDS | –
diastrophic dysplasia sulfate transporter (DTDST) (Mus musculus) (protein, full open reading frame from mouse ileal epithelial cDNA, C-terminal FLAG tag, stably expressed in CHO-K1 cells (pcDNA3.1(+))) MSSENKEQHDLSPRDLPEEAFGFPSELPLETQRRSGTDLRQSETGHGRRAFRRIHMELREKPDTDIKQFVIRELQKSCQCSAAKVRDGAFDFFPVLRWLPKYDLKKNILGDVMSGLIVGILLVPQSIAYSLLAGQEPIYGLYTSFFASIIYFLFGTSRHISVGIFGILCLMIGEVVDRELHKACPDTDATSSSIAVFSSGCVVVNHTLDGLCDKSCYAIKIGSTVTFMAGVYQVAMGFFQVGFVSVYLSDALLSGFVTGASFTILTSQAKYLLGLSLPRSHGVGSVITTWIHIFRNIRNTNICDLITSLLCLLVLVPSKELNEHFKDKLKAPIPVELIVVVAATLASHFGKLNGNYNSSIAGHIPTGFMPPKAPDWSLIPNVAVDAIAISIIGFAITVSLSEMFAKKHGYTVKANQEMYAIGFCNIIPSFFHCITTSAALAKTLVKESTGCQTQLSAIVTALVLLLVLLVIAPLFYSLQKCVLGVITIVNLRGALLKFRDLPKMWRLSRMDTVIWFVTMLSSALLSTEIGLLVGVCFSMFCVILRTQKPKNSLLGLEEESETFESISTYKNLRSKSGIKVFRFIAPLYYINKECFKSALYKKALNPVLVKAAWKKAAKRKLKEEMVTFRGDPDEVSMQLSHDPLEVHTIVIDCSAIQFLDTAGIHTLKEVRRDYEAVGIQVLLAQCNPSVRDSLARGEYCKKEEETLLFYSLSEAVAFAEDSQNQKGVCVVNGLSLSGD | – | 576 ± 244
